# According to DBAASP:
# “And” between values parts separate entries of the source, which are not always exact repeats. Equal entries are not always repeated.
# Key:
# Test in all cases: ≥ marks a high value that may be exact or a test limit, other limits are often not marked, values filed in µg/mL are converted to µM
# [1] = system: Staphylococcus aureus KCTC 1621
# [2] = system: Escherichia coli KCTC 1682
# [3] = system: Bacillus subtilis KCTC 1022
# [4] = system: Bacillus subtilis KCTC 3068
# [5] = system: Escherichia coli KCTC 2593
# [6] = system: Bacillus subtilis KCTC 1021
# [7] = system: Pseudomonas aeruginosa KCTC 2004
# [8] = system: Staphylococcus aureus KCTC 1916
# [9] = system: Staphylococcus epidermidis KCTC 1917
# [10] = system: Pseudomonas aeruginosa KCTC 1637
# [11] = system: Escherichia coli KCTC 2571
# [12] = system: Salmonella typhimurium KCTC 1926
# [13] = system: Pseudomonas aeruginosa KCTC 2513
# [14] = system: Staphylococcus aureus KCTC 3881
# [15] = system: Pseudomonas syringae pv. syringae DSM 10604
# [16] = system: Clavibacter michiganensis subsp. michiganensis DSM 46294
# [17] = system: Pseudomonas corrugata DSM 7228
# [18] = system: Botrytis cinerea
# [19] = system: Xanthomonas vesicatoria DSM 50861
# [20] = system: Alternaria alternata
# [21] = system: Staphylococcus aureus 90857
# [22] = system: Pseudomonas syringae pv. tomato DC3000
# [23] = system: Pectobacterium carotovorum subsp. carotovorum DSM 30168
# [24] = system: Cladosporium herbarum
# [25] = system: Staphylococcus aureus CCARM 3090
# [26] = system: Pseudomonas aeruginosa CCARM 2109
# [27] = system: Staphylococcus aureus CCARM 3095
# [28] = system: Enterococcus faecium ATCC 51559
# [29] = system: Pseudomonas aeruginosa CCARM 2095
MIC [1] [µM],MIC [2] [µM],MIC [3] [µM],MIC [4],MIC [5] [µM],MIC [6] [µM],MIC [7] [µM],MIC [8] [µM],MIC [9] [µM],MIC [10],MIC [11] [µM],MIC [12] [µM],MIC [13] [µM],MIC [14] [µM],SMILES,also measured
2,2,2,2 µM,2,2,4,2,2,4 µM,2,2,4,2,CC[C@H](C)[C@H](NC(=O)CNC(=O)[C@H](CCCN=C(N)N)NC(=O)[C@H](Cc1ccccc1)NC(=O)[C@@H](NC(=O)[C@H](Cc1cnc[nH]1)NC(=O)[C@H](Cc1cnc[nH]1)NC(=O)[C@H](Cc1c[nH]c2ccccc12)NC(=O)[C@@H](N)Cc1ccccc1)[C@@H](C)CC)C(=O)N[C@H](C(=O)N[C@@H](Cc1cnc[nH]1)C(=O)N[C@H](C(=O)NCC(=O)N[C@@H](CCCCN)C(=O)N[C@H](C(=O)N[C@H](C(=O)N[C@@H](Cc1cnc[nH]1)C(=O)N[C@@H](CCCN=C(N)N)C(=O)N[C@@H](CC(C)C)C(=O)N[C@H](C(=O)N[C@H](C(=O)NCC(=O)O)[C@@H](C)O)C(C)C)[C@@H](C)CC)[C@@H](C)O)C(C)C)C(C)C [FWHHIFRGIVHVGKTIHRLVTG],
,,,,,,,,,,,,,,CC(C)C[C@H](NC(=O)[C@H](CCCCN)NC(=O)[C@H](CC(C)C)NC(=O)[C@H](CCCN=C(N)N)NC(=O)[C@H](CCCCN)NC(=O)[C@H](CCCCN)NC(=O)[C@@H](N)CCCN=C(N)N)C(=O)N[C@@H](CC(C)C)C(=O)N[C@@H](CCCCN)C(=O)N[C@@H](CCCN=C(N)N)C(=O)N[C@@H](CC(C)C)C(=O)N[C@H](C(N)=O)C(C)C [RKKRLKLLKRLV],MIC [15]: 1.29 µM; MIC [16]: 0.645 µM; MIC [17]: 1.29 µM; MIC [18]: ≥ 64.5 µM; MIC [19]: 1.29 µM; MIC [20]: ≥ 64.5 µM; MIC [21]: 25 µM; MIC [22]: 0.645 µM; MIC [23]: 25.8 µM; MIC [24]: 6.45 µM
2,2,4,4 µM,2,4,4,2,2,4 µM,2,4,4,2,CC[C@H](C)[C@H](NC(=O)CNC(=O)[C@H](CCCN=C(N)N)NC(=O)[C@H](Cc1c[nH]c2ccccc12)NC(=O)[C@@H](NC(=O)[C@H](Cc1cnc[nH]1)NC(=O)[C@H](Cc1cnc[nH]1)NC(=O)[C@H](Cc1ccccc1)NC(=O)[C@@H](N)Cc1ccccc1)[C@@H](C)CC)C(=O)N[C@H](C(=O)N[C@@H](Cc1cnc[nH]1)C(=O)N[C@H](C(=O)NCC(=O)N[C@@H](CCCCN)C(=O)N[C@H](C(=O)N[C@H](C(=O)N[C@@H](Cc1cnc[nH]1)C(=O)N[C@@H](CCCN=C(N)N)C(=O)N[C@@H](CC(C)C)C(=O)N[C@H](C(=O)N[C@H](C(=O)NCC(=O)O)[C@@H](C)O)C(C)C)[C@@H](C)CC)[C@@H](C)O)C(C)C)C(C)C [FFHHIWRGIVHVGKTIHRLVTG],
,,,8 µM and 4 µM,,,,,,4 µM and 8 µM,,,,,CC[C@H](C)[C@H](NC(=O)[C@H](CC(C)C)NC(=O)[C@H](CCCCN)NC(=O)[C@@H](NC(=O)[C@@H](NC(=O)[C@H](CCCN=C(N)N)NC(=O)[C@@H](N)CCCCN)[C@@H](C)CC)C(C)C)C(=O)N[C@@H](CCCCN)C(=O)N[C@@H](CCCCN)C(=O)N[C@@H](Cc1c[nH]c2ccccc12)C(=O)N[C@@H](CC(C)C)C(=O)N[C@@H](CCCN=C(N)N)C(N)=O [KRIVKLIKKWLR],MIC [25]: ≥ 64 µM; MIC [26]: ≥ 64 µM; MIC [27]: ≥ 64 µM; MIC [28]: ≥ 64 µM; MIC [29]: 4 µM
